The record followed here is US11597724B2, “Herbicidally active 3-phenylisoxazoline-5-carboxamides of tetrahydro and dihydrofuran carboxylic acids and esters” (Bayer Aktiengesellschaft, priority 2017, dated 2023).

What all share (type): in vivo
Assay [1] deals with Avena fatua. Kind of assay: Pre-emergence herbicidal activity against AVEFA. The conditions noted are these: dosage 80 g/ha; for pest or weed control at 80 g/ha: Avena fatua, 504 h, read-out: Pre-emergence herbicidal activity against AVEVA in % (AVEFA). From the text: (§1) 1. Pre-Emergence Herbicidal Action and Crop Plant Compatibility Seeds of monocotyledonous and dicotyledonous weed plants and crop plants are placed in plastic or wood fiber pots and covered with soil. The compounds of the invention, formulated in the form of wettable powders (WP) or as emulsion concentrates (EC), are then applied onto the surface of the covering soil as aqueous suspension or emulsion with addition of 0.5% additive at a water application rate of 600 l/ha (converted). After the treatment, the pots are placed in a greenhouse and kept under good growth conditions for the trial plants. After about 3 weeks, the effect of the preparations is scored visually in comparison with untreated controls as percentages. For example, 100% activity=the plants have died, 0% activity=like control plants. AMARE: Amaranthus retroflexus AVEFA: Avena fatua

Another assay relates to Amaranthus retroflexus. Put plainly: Pre-emergence herbicidal activity against AMARE. As to conditions: dosage 80 g/ha; for pest or weed control at 80 g/ha: Amaranthus retroflexus, 504 h.
Source text: as §1

A further assay relates to Stellaria media. Put plainly: Pre-emergence herbicidal activity against STEME. As to conditions: dosage 80 g/ha; for pest or weed control at 80 g/ha: Stellaria media, 504 h.
Source text: as §1, with “STEME: Stellaria media VERPE: Veronica persica” for “AMARE: Amaranthus retroflexus AVEFA: Avena fatua”

Assay [2] deals with Avena fatua. Kind of assay: Post-emergence herbicidal activity against AVEFA. The conditions noted are these: dosage 320 g/ha, rated about 3 weeks after treatment; for pest or weed control at 320 g/ha: Avena fatua, 504 h. A digest of the protocol:
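Greenhouse pots of sandy loam; plants sprayed at one-leaf stage, 2 to 3 weeks after sowing, with WP or EC formulations in water plus 0.5% additive at 600 l/ha. Activity rated visually after about 3 weeks against untreated controls (100% = plants dead, 0% = like control).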

For the next assay, the system named is Echinochloa crus-galli. Kind of assay: Post-emergence herbicidal activity against ECHCG. The conditions noted are these: dosage 320 g/ha, rated about 3 weeks after treatment; for pest or weed control at 320 g/ha: Echinochloa crus-galli, 504 h. The essentials:
(§2)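 Greenhouse pot plants sprayed post-emergence at one-leaf stage (2-3 weeks after sowing) with WP or EC formulations, 0.5% additive, 600 l/ha water. Visual rating about 3 weeks later versus untreated controls: 100% = plants dead, 0% = like control.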

For the next assay, the system named is Setaria viridis. Put plainly: Post-emergence herbicidal activity against SETVI. As to conditions: dosage 320 g/ha, rated about 3 weeks after treatment; for pest or weed control at 320 g/ha: Setaria viridis, 504 h. The essentials:
(§3)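 Greenhouse weeds in sandy loam were sprayed at the one-leaf stage, 2–3 weeks after sowing, with WP or EC formulations plus 0.5% additive at 600 l/ha water. About 3 weeks later, damage was rated visually against untreated controls, where 100% means plants dead and 0% means like control.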

A further assay has as its system Pharbitis purpurea. Kind of assay: Post-emergence herbicidal activity against PHBPU. As to conditions: dosage 320 g/ha, rated about 3 weeks after treatment; for pest or weed control at 320 g/ha: Ipomoea purpurea, 504 h. The essentials:
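Greenhouse-grown plants sprayed post-emergence at the one-leaf stage, 2 to 3 weeks after sowing, with WP or EC formulations plus 0.5% additive at 600 l/ha water. Activity rated visually after about 3 weeks versus untreated controls (100% = plants dead, 0% = like control).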

Another assay concerns Polygonum convolvulus. Kind of assay: Post-emergence herbicidal activity against POLCO. As to conditions: dosage 320 g/ha, rated about 3 weeks after treatment; for pest or weed control at 320 g/ha: Fallopia convolvulus, 504 h. The essentials: as §3
A further assay concerns Hordeum murinum. Put plainly: Post-emergence herbicidal activity against HORMU. As to conditions: dosage 320 g/ha; for pest or weed control at 320 g/ha: Hordeum murinum, 504 h. A digest of the protocol:
as §2

Turning to `COC(=O)C1COCC1NC(=O)[C@@]1(C)CC(c2cc(F)cc(F)c2)=NO1` (stereo partly drawn) [I-28, methyl 4-[[(5R)-3-(3,5-difluorophenyl)-5-methyl-4H-isoxazole-5-carbonyl]amino]tetrahydrofuran-3-carboxylate], the pest or weed control at 80 g/ha in the assay on Avena fatua [1] worked out at 100%; in the assay on Amaranthus retroflexus, 90%; in the assay with Stellaria media, 100%. Besides, the pest or weed control at 320 g/ha turned out to be 100% in the assay with Avena fatua [2]; 80% with Echinochloa crus-galli; 80% with Setaria viridis; 80% with Pharbitis purpurea; 80% in the assay on Polygonum convolvulus.

As for `C=C[C@]1(C(=O)N[C@H]2CO[C@@H](C(=O)OC(C)(C)C)C2)CC(c2cc(F)cc(F)c2)=NO1` (mixture of isomers) [I-38, tert-butyl cis-4-[[(5S)-3-(3,5-difluorophenyl)-5-vinyl-4H-isoxazole-5-carbonyl]amino]tetrahydrofuran-2-carboxylate], the pest or weed control at 80 g/ha is 90% in the assay with Avena fatua [1], 100% in the assay on Amaranthus retroflexus and 100% in the assay on Stellaria media. Besides, the pest or weed control at 320 g/ha was determined as 90% with Avena fatua [2]; 90% with Echinochloa crus-galli; 100% in the assay with Setaria viridis; 90% with Pharbitis purpurea; 90% in the assay on Hordeum murinum.

Consider `CCOC(=O)C1CC(NC(=O)C2(C)CC(c3cc(F)cc(F)c3)=NO2)CO1` (mixture of isomers) [I-43], for which the “Pre-emergence herbicidal activity against AVEVA in % (AVEFA)” value with Avena fatua [1] is listed as 100%. For the same molecule, in the assay with Amaranthus retroflexus, the “Pre-emergence herbicidal activity against AMARE in %” value is reported as 90%. For the same molecule, the “Pre-emergence herbicidal activity against STEME in %” value with Stellaria media is 100%. Moreover, the “Post-emergence herbicidal activity against AVEFA in %” value in the assay on Avena fatua [2] is 100%. The “Post-emergence herbicidal activity against ECHCG in %” value in the assay with Echinochloa crus-galli came to 100%. The “Post-emergence herbicidal activity against SETVI in %” value in the assay on Setaria viridis is reported as 80%. Further, the “Post-emergence herbicidal activity against PHBPU in %” value in the assay with Pharbitis purpurea turned out to be 90%. For the same molecule, the “Post-emergence herbicidal activity against POLCO in %” value in the assay on Polygonum convolvulus amounted to 80%. Besides, the “Post-emergence herbicidal activity against HORMU in %” value in the assay on Hordeum murinum is given as 100%.

`COC(=O)C1=C[C@@H](NC(=O)C2(C)CC(c3cccc(F)c3)=NO2)CO1` (stereo partly drawn) [I-46, methyl (3R)-3-[[3-(3-fluorophenyl)-5-methyl-4H-isoxazole-5-carbonyl]amino]-2,3-dihydrofuran-5-carboxylate]: the values for the pest or weed control at 80 g/ha in the assay on Avena fatua [1], in the assay on Amaranthus retroflexus and with Stellaria media were 80%, 90% and 100%, respectively. For the same molecule, the pest or weed control at 320 g/ha was 100% in the assay on Avena fatua [2]; 100% with Echinochloa crus-galli; 80% in the assay on Setaria viridis; 90% with Pharbitis purpurea; 80% in the assay with Polygonum convolvulus; 100% with Hordeum murinum.

Turning to `CC1(C(=O)NC2COC(C(=O)OCc3ccccc3)C2)CC(c2cc(F)cc(F)c2)=NO1` (mixture of isomers) [I-45], in the assay on Avena fatua [1], the “Pre-emergence herbicidal activity against AVEVA in % (AVEFA)” value was 100%. Moreover, in the assay with Amaranthus retroflexus, the “Pre-emergence herbicidal activity against AMARE in %” value came to 100%. Moreover, the “Pre-emergence herbicidal activity against STEME in %” value in the assay on Stellaria media is 100%. The “Post-emergence herbicidal activity against AVEFA in %” value with Avena fatua [2] stood at 100%. Also, in the assay on Echinochloa crus-galli, the “Post-emergence herbicidal activity against ECHCG in %” value came to 100%. For the same molecule, the “Post-emergence herbicidal activity against SETVI in %” value with Setaria viridis is given as 90%. In the assay on Pharbitis purpurea, the “Post-emergence herbicidal activity against PHBPU in %” value is recorded as 90%. The “Post-emergence herbicidal activity against POLCO in %” value in the assay on Polygonum convolvulus came out at 80%. The “Post-emergence herbicidal activity against HORMU in %” value with Hordeum murinum was 100%.

As for `C=C[C@]1(C(=O)N[C@H]2CO[C@@H](C(=O)OCC)C2)CC(c2cc(F)cc(F)c2)=NO1` (mixture of isomers) [I-35, ethyl cis-4-[[(5S)-3-(3,5-difluorophenyl)-5-vinyl-4H-isoxazole-5-carbonyl]amino]tetrahydrofuran-2-carboxylate], the pest or weed control at 80 g/ha with Avena fatua [1], in the assay on Amaranthus retroflexus and with Stellaria media was 100% throughout. The pest or weed control at 320 g/ha with Avena fatua [2] worked out at 100%; in the assay with Echinochloa crus-galli it was 100%; in the assay on Setaria viridis, 90%; in the assay with Pharbitis purpurea it was 90%; with Hordeum murinum, 100%.

As for `COC(=O)C1CC(NC(=O)C2(C(C)(F)F)CC(c3cc(F)cc(F)c3)=NO2)CO1` (stereo not shown) [I-49], in the assay with Avena fatua [1], the “Pre-emergence herbicidal activity against AVEVA in % (AVEFA)” value is 100%. The “Pre-emergence herbicidal activity against AMARE in %” value in the assay with Amaranthus retroflexus stood at 100%. For the same molecule, the “Pre-emergence herbicidal activity against STEME in %” value in the assay on Stellaria media was determined as 100%. In addition, in the assay on Avena fatua [2], the “Post-emergence herbicidal activity against AVEFA in %” value was 80%. Moreover, the “Post-emergence herbicidal activity against ECHCG in %” value with Echinochloa crus-galli is reported as 80%. In addition, in the assay on Pharbitis purpurea, the “Post-emergence herbicidal activity against PHBPU in %” value came out at 80%. Further, in the assay with Polygonum convolvulus, the “Post-emergence herbicidal activity against POLCO in %” value amounted to 80%.

For `C=CC1(C(=O)N[C@H]2CO[C@@H](C(=O)O)C2)CC(c2cc(F)cc(F)c2)=NO1` (relative stereo) [I-21, cis-4-[[3-(3,5-difluorophenyl)-5-vinyl-4H-isoxazole-5-carbonyl]amino]tetrahydrofuran-2-carboxylic acid], the values for the pest or weed control at 80 g/ha in the assay with Avena fatua [1], in the assay on Amaranthus retroflexus and with Stellaria media were 90%, 100% and 100%, respectively. Moreover, the pest or weed control at 320 g/ha was 90% in the assay with Avena fatua [2], 80% in the assay with Echinochloa crus-galli, 80% with Setaria viridis and 80% in the assay with Pharbitis purpurea.

With `COC(=O)C1COCC1NC(=O)C1(OC)CC(c2cc(Cl)cc(Cl)c2)=NO1` (stereo not shown) [I-29, methyl 4-[[3-(3,5-dichlorophenyl)-5-methoxy-4H-isoxazole-5-carbonyl]amino]tetrahydrofuran-3-carboxylate], the pest or weed control at 80 g/ha turned out to be 80% in the assay with Avena fatua [1], 90% in the assay with Amaranthus retroflexus and 90% in the assay with Stellaria media. The pest or weed control at 320 g/ha with Avena fatua [2] turned out to be 90%; in the assay on Echinochloa crus-galli, 90%; in the assay with Setaria viridis, 80%; in the assay with Pharbitis purpurea, 80%; with Polygonum convolvulus, 80%.

For the molecule `C=C[C@]1(C(=O)N[C@H]2CO[C@@H](C(=O)OCc3ccccc3)C2)CC(c2cc(F)cc(F)c2)=NO1` (mixture of isomers) [I-37, benzyl cis-4-[[(5S)-3-(3,5-difluorophenyl)-5-vinyl-4H-isoxazole-5-carbonyl]amino]tetrahydrofuran-2-carboxylate], the pest or weed control at 80 g/ha with Avena fatua [1], in the assay with Amaranthus retroflexus and in the assay on Stellaria media was 100% in each case. In addition, the pest or weed control at 320 g/ha in the assay on Avena fatua [2] is 100%; in the assay with Echinochloa crus-galli it was 90%; with Setaria viridis, 80%; with Pharbitis purpurea, 90%; with Hordeum murinum, 80%.

On to `COC(=O)C1COCC1NC(=O)C1(OC)CC(c2cc(F)cc(F)c2)=NO1` (stereo not shown) [I-27, methyl 4-[[3-(3,5-difluorophenyl)-5-methoxy-4H-isoxazole-5-carbonyl]amino]tetrahydrofuran-3-carboxylate], for which the pest or weed control at 80 g/ha in the assay with Avena fatua [1], with Amaranthus retroflexus and in the assay on Stellaria media was 90% each time. In addition, the pest or weed control at 320 g/ha is 90% in the assay with Avena fatua [2], 80% in the assay on Setaria viridis, 80% in the assay with Pharbitis purpurea and 80% in the assay on Polygonum convolvulus.
